Marks after values point to notes of the source that are not given here.
Conditions: pH 2.7

SMILES: CCOC(=O)C(C#N)=C(NC(C)CSc1cc(Cl)ccc1Cl)c1cn(C)nc1C(F)F (racemic) [Compound 1235]
- Log P: 4.08^[a]

SMILES: CCOC(=O)C(C#N)=C(NC(C)CSc1ccc(Cl)c(Cl)c1)c1cn(C)nc1C(F)F (racemic) [Compound 1236]
- Log P: 4.2^[a]

SMILES: CCOC(=O)C(C#N)=C(NC(C)COc1cccc(C(F)(F)F)c1)c1cn(C)nc1C(F)F (racemic) [Compound 1237]
- Log P: 3.92^[a]

SMILES: CCOC(=O)C(C#N)=C(NCC(c1ccccc1)C(C)C)c1cn(C)nc1C(F)F (racemic) [Compound 1239]
- Log P: 3.94^[a]

SMILES: CCOC(=O)C(C#N)=C(NC(C)C(=O)CC)c1cn(C)nc1C(F)F (racemic) [Compound 1240]
- Log P: 2.47^[a]

SMILES: CCOC(=O)C(C#N)=C(NC(C)COCc1ccccc1Cl)c1cn(C)nc1C(F)F (racemic) [Compound 1241]
- Log P: 3.83^[a]

SMILES: CCOC(=O)C(C#N)=C(NC(C)COc1ccccc1C)c1cn(C)nc1C(F)F (racemic) [Compound 1242]
- Log P: 3.78^[a]

SMILES: CCOC(=O)C(C#N)=C(NC(C)c1ccccn1)c1ccnc(C)c1Cl (racemic) [Compound 1243]
- Log P: 2.6^[a]

SMILES: CCOC(=O)C(C#N)=C(NC(C)c1nccs1)c1cn(C)nc1I (racemic) [Compound 1247]
- Log P: 3.46^[a]

SMILES: CCOC(=O)C(C#N)=C(NC(C)c1ccccn1)c1cn(C)nc1I (racemic) [Compound 1248]
- Log P: 2.37^[a]

SMILES: CCCC(C#N)NC(=C(C#N)C(=O)OCC)c1cn(C)nc1C(F)F (racemic) [Compound 1250]
- Log P: 2.77^[a]

SMILES: CCOC(=O)C(C#N)=C(NC(C#N)CC)c1cn(C)nc1C(F)F (racemic) [Compound 1251]
- Log P: 2.45^[a]

SMILES: CCOC(=O)C(C#N)=C(NC(C#N)CC(C)C)c1cn(C)nc1C(F)F (racemic) [Compound 1252]
- Log P: 3.04^[a]

SMILES: CCOC(=O)C(C#N)=C(NC(C)C(F)(F)F)c1cn(C)nc1C(F)F (racemic) [Compound 1253]
- Log P: 2.92^[a]

SMILES: CCOC(=O)C(C#N)=C(NC(C)C#N)c1cn(C)nc1C(F)F (racemic) [Compound 1254]
- Log P: 2.15^[a]

SMILES: CCNC(=O)C(C)NC(=C(C#N)C(=O)OCC)c1cn(C)nc1C(F)F (racemic) [Compound 1256]
- Log P: 1.88^[a]

SMILES: CCOC(=O)C(C#N)=C(NC(C#N)c1cccc(Cl)c1Cl)c1cccnc1Cl (racemic) [Compound 1257]
- Log P: 3.69^[a]

SMILES: C#CCC(C#N)NC(=C(C#N)C(=O)OCC)c1cccnc1Cl (racemic) [Compound 1258]
- Log P: 2.37^[a]

SMILES: CCOC(=O)C(C#N)=C(NC(C#N)Cc1ccccc1)c1cccnc1Cl (racemic) [Compound 1259]
- Log P: 3.02^[a]

SMILES: CCOC(=O)C(C#N)=C(NC(c1ccc(N(C)C)cc1)C(F)(F)F)c1cccnc1Cl (racemic) [Compound 1260]
- Log P: 3.99^[a]

SMILES: CCOC(=O)C(C#N)=C(NC(c1ccc(Cl)cc1)C(F)(F)F)c1cccnc1Cl (racemic) [Compound 1261]
- Log P: 4.25^[a]

SMILES: CCOC(=O)C(C#N)=C(NC(Cc1ncccc1C)C(F)(F)F)c1cccnc1Cl (racemic) [Compound 1262]
- Log P: 3.04^[a]

SMILES: CCOC(=O)C(C#N)=C(NC(C#N)c1ccc(Cl)cc1Cl)c1cccnc1Cl (racemic) [Compound 1267]
- Log P: 3.83^[a]

SMILES: CCOC(=O)C(C#N)=C(NC(C)C(=O)CC)c1cccnc1Cl (racemic) [Compound 1270]
- Log P: 2.64^[a]

SMILES: CCNC(=O)C(C#N)=C(NC(C)c1ccccn1)c1ccnc(C)c1Cl (racemic) [Compound 1277]
- Log P: 2.7^[a]

SMILES: CC(NC(=C(C#N)C(=O)NC1CC1)c1cn(C)nc1C(F)F)c1nccs1 (racemic) [Compound 1279]
- Log P: 2.04^[a]

SMILES: CC(NC(=C(C#N)C(=O)NC1CC1)c1cn(C)nc1C(F)F)c1ccccn1 (racemic) [Compound 1280]
- Log P: 1.84^[a]

SMILES: COCCNC(=O)C(C#N)=C(NC(C)c1nccs1)c1cn(C)nc1C(F)F (racemic) [Compound 1287]
- Log P: 1.96^[a]

SMILES: COCCNC(=O)C(C#N)=C(NC(C)c1ccccn1)c1cn(C)nc1C(F)F (racemic) [Compound 1288]
- Log P: 1.75^[a]
